Measurements: patent US12090122B2, “Curcumin-based compositions and methods of use thereof” (priority 2017, dated 2024)

How the values were obtained:
Assay type in all cases: cell-based
[1] = tested on: NFkB-p65; experiment: Western blot of cytoplasmic and nuclear NFkB-p65 protein levels (nucleotranslocation) in LPS-induced BV2 cells; conditions: 22.0 μg/ml, 30 min pre-treatment, LPS induction, FIGS. 3 and 4
Procedure: (§1) Example 2—Western Blot Analysis of Cytoplasmic and Nuclear MSK1 Levels. Western blot analysis was performed in multiple varying formats before optimization was achieved. The BV2 microglia cell line was cultured in Dulbecco's Modified Eagle's Medium (DMEM)—complete medium. The complete medium consisted of DMEM, 1% Ampicillin, and 10% Fetal Bovine Serum (FBS). BV2 microglia cells, at a cell count of approximately 2×10^6, were seeded in each well (6 wells per plate) with 2.0 ml complete medium and cultured overnight in a ThermaForma HepaFilter Series II CO2 Incubator at 37° Celsius. Upon establishing confluence, subconfluent cells were washed out and the wells were prepared with drug pre-treatment after overnight incubation.
(§2) The test drugs (curcuminoids) were procured as follows: curcumin I research standard (03926) (ChromaDex Irvine, CA USA) (97.7% purity); curcumin II research standard (04230) (ChromaDex Irvine, CA USA) (97.3%); curcumin III research standard (B6938) (Sigma-Aldrich St. Louis, Missouri, USA) (97.7% purity); curcumin extract (curcumin I—77.7%, curcumin II—16.9%, curcumin III—0.9%) research standard (03928) (ChromaDex Irvine, CA USA) (95.3% purity); and Lipopolysaccharide (LPS) from E. Coli (L2630) (Sigma-Aldrich St. Louis, Missouri, USA).
(§3) Curcuminoids are not soluble in aqueous medium due to their hydrophobic characteristic. However, curcuminoid extracts are soluble in polar organic solvents, such as DMSO and acetone. In this Example, each curcuminoid preparation was first dissolved in DMSO. DMSO was used in the drug preparation at 0.2%. The drug/DMSO solution was subsequently dissolved in DMEM to achieve a final drug concentration for each curcuminoid preparation tested—22.0 μg/ml curcuminoid. […]
(§4) Total protein concentration for each fraction was determined using a Bio Rad Protein Assay that is based on the Bradford Assay (dye-binding method). […]
(§5) The targets analyzed in the Western Blot included NFkB-p65 and its nucleocytoplasmic translocation, as well as kinases (including MSK1) and their covalent modifications upstream of and involved in the regulation of NFkB. […]

[2] = tested on: NFkB p65 phosphorylated at the serine 276 phosphosite; experiment: Western blot of NFkB-p65 phosphorylated at serine 276 in LPS-induced BV2 cells; conditions: 22.0 μg/ml, 30 min pre-treatment, LPS induction, cytoplasmic and nuclear, FIGS. 5 and 6
Procedure: as §1, §2, §3, §4, §5

[3] = tested on: MSK1 phosphorylated at the serine 376 phosphosite; experiment: Western blot of MSK1 phosphorylated at serine 376 in LPS-induced BV2 cells; conditions: 22.0 μg/ml, 30 min pre-treatment, LPS induction, FIGS. 9 and 10
Procedure: as §1, with “incubation. […]” for “incubation.”
as §4, §5

| Structure (SMILES) | NFkB-p65 nucleotranslocation (cytosolic and nuclear NFkB-p65 levels relative to total protein) [1] | NFkB-p65 serine 276 phosphorylation [2] | MSK1 serine 376 phosphorylation [3] |
| --- | --- | --- | --- |
| COc1cc(/C=C/C(=O)/C=C(O)/C=C/c2ccc(O)c(OC)c2)ccc1O [curcumin I, (1E,6E)-1,7-Bis(4-hydroxy-3-methoxyphenyl)-1,6-heptadiene-3,5-dione, reference compound] | not significantly inhibited | moderately inhibit | – |
| COc1cc(/C=C/C(=O)CC(=O)/C=C/c2ccc(O)cc2)ccc1O [curcumin II, (1E,6E)-1-(4-Hydroxy-3-methoxyphenyl)-7-(4-hydroxyphenyl)hepta-1,6-diene-3,5-dione] | not significantly inhibited | moderately inhibit | inhibit |
| O=C(/C=C/c1ccc(O)cc1)CC(=O)/C=C/c1ccc(O)cc1 [curcumin III, (1E,6E)-1,7-bis(4-hydroxyphenyl)hepta-1,6-diene-3,5-dione] | not significantly inhibited | moderately inhibit | – |
